Data reported in paper PMC8920379, “The discovery of berberine erythrocyte-hemoglobin self-assembly delivery system: a neglected carrier underlying its pharmacokinetics” (Drug Delivery, 2022).
Entries after “also recorded” stand apart in the source; their conditions may differ.

What was measured:
[1] = test system: erythrocyte count, WBC count, PLT and Hb; experiment: Haematological indicators (peripheral blood cells) after intravenous BBR; assay type: in vivo, SD rats; conditions: rats, i.v. 2.5 mg/kg, 5, 30 and 120 min, vs control group, n = 8
Procedure: After 48 SD rats were fed adaptively for a week, they were randomly divided into the control group and i.v. group (24 rats per group). Then they were further divided into 5, 30, and 120 min subgroups (n = 8). The SD rats in the i.v. group were intravenously administrated with 2.5 mg/kg BBR, while the control group was intravenously administrated with 1 mL 0.9% physiological saline solution. The blood samples were collected from the retroorbital sinus to K2EDTA-coated tubes, and used for the evaluation of haematological indicators including erythrocyte count, white blood cell (WBC) count, platelet count (PLT) and Hb.

[2] = cited from earlier work
bovine hemoglobin (BHB) [3] = target: T1, bovine hemoglobin (BHB) (Bos taurus, UniProt P01966+P02070); experiment: Fluorescence quenching of BHB by BBR (Stern-Volmer) and thermodynamic parameters; assay type: binding; conditions: for Ksv (Stern-Volmer quenching constant) / kq (quenching rate constant): BHB 2 × 10^−6 mol/L, pH 7.4; for ΔG° / ΔH° / ΔS°: BBR–BHB system
T1 construct: purchased Sigma Aldrich
T1 sequence (P01966 2-142 limits assumed): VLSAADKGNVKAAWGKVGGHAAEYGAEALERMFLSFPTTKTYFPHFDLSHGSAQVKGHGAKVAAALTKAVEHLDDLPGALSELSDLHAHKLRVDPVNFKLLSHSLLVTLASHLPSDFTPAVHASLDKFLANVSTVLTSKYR
T1 sequence (P02070 whole entry): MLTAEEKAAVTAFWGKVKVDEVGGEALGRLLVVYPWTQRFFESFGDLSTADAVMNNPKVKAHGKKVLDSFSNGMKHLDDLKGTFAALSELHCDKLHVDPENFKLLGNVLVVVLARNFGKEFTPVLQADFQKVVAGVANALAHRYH
Procedure: Firstly, 1.0 mL of BHB (2.0 × 10^−6 mol/L) was mixed with 1.0 mL of 0.05 mol/L Tris-HCl buffer (pH = 7.4). And then BHB was added with different amounts of 0.25 × 10^−3 mol/L stock solution of BBR with an increment of 0.25 × 10^−5 mol/L until 1.75 × 10^−5 mol/L. […] (excitation at 280 nm and emission wavelengths ranging from 295 to 400 nm). The synchronous fluorescence spectra were measured through simultaneous scanning of the excitation (λex = 240 nm) and emission monochromators while maintaining a constant wavelength interval between them (Δλ, 15 nm and 60 nm).
(§1) In addition, CD spectra were collected from 200 to 260 nm with three scans averaged for each CD spectrum. The molar ratio (1:1) of BHB: BBR was used for the measurement. Briefly, BHB and BBR were dissolved in Tris-HCl (pH 7.4), and the solutions were freeze-dried into powder. Raman spectra were measured from 2600 to 400 cm^−1 using the Nd-YAG laser (1064 nm). Due to the existence of inner filter effects, the fluorescence parameter was corrected using the equation: F=F0×10^(AEX+AEM/2) where F and F0 are the fluorescence intensity corrected and observed, respectively; AEX and AEM are the sums of the absorbance of samples at excitation and emission wavelengths (Chen et al., [2021]).
Fluorescence quenching could be used to explore the interaction between drugs and proteins, and further elucidate the interaction between small drug molecules and biological macromolecules at the molecular level. Due to the quenching mechanisms were usually classified as static and dynamic quenching, the Stern-Volmer equation was utilized to calculate the fluorescence quenching data (Wang et al., [2007]): F0/F=1+Ksv[Q]=1+kqτ0[Q] where F0 and F are the fluorescence intensities at the absence or presence of BBR after correction by Equation, respectively. Ksv is the Stern-Volmer quenching constant, while [Q] is the concentration of the quencher. In addition, kq is the quenching rate constant of the binding system, and τ0 is the lifetime of fluorescence at the absence of quencher ([…]) (Sousa et al., [2008]).
In our earlier research, we have explored the association constants and the number of binding sites, and we have learned that in a static quenching system when a small molecule combines with a set of sites on a macromolecule, some constant can be calculated from the following equation: lg(F0−F/F)=lgKa+nlg[Q] where F0 and F are the fluorescence intensities in the absence and presence of BBR after correction by Equation in Spectrum procedure, Ka and n mean the association constants and the number of the sites per BHB molecule. The interrelated results were shown in our previous work (Chen et al., [2021]).
The thermodynamic parameters were analyzed using the following equations: ln((Ka)2/(Ka)1)=(1/T1−1/T2)(ΔH°/R) ΔG°=ΔH°−TΔS°=−RTlnKa where (Ka)1, and (Ka)2 are the binding constants at T1 and T2 and, R is the universal gas constant. If ΔH° < 0 and ΔS° < 0, van der Waals’ interactions and hydrogen bonds are dominant the binding reaction. If ΔH° > 0 and ΔS° > 0, hydrophobic interactions play a major role in the binding reaction. When ΔH° < 0 and ΔS° > 0, the electrostatic forces are more important than other forces (Ross and Subramanian, [1981]). […] The large positive entropy is the marker of the disruption and release of protein-bound condensed ions and water molecules (Basu & Suresh Kumar, [2015]).

bovine hemoglobin (BHB) [4] = target: T1, bovine hemoglobin (BHB); experiment: Circular dichroism of BHB-BBR systems; assay type: binding; conditions: CD, BHB:BBR molar ratios up to 1:8, reduced from 36.87% for BHB alone, pH 7.4, 298 K
Procedure: as §1
In this work, the molar ratios of 1:0, 1:2, 1:4 and 1:8 for BHB: BBR were utilized for the CD records. […] Besides, the helix of α chain can be calculated following the below equation: α−Helix(%)=−MRE208−4000/33000−4000×100 where MRE208 is the observed MRE value at 208 nm, 4000 is the MRE value of β-form and random coil conformation cross at 208 nm, and 33,000 is the MRE value of pure α-helix at 208 nm (Shobini et al., [2001]).

[5] = parameters: method as in Liu et al., 2010; Chen et al., 2011; conditions: ref Liu et al., 2010; Chen et al., 2011; cited from earlier work

SMILES: COc1ccc2cc3[n+](cc2c1OC)CCc1cc2c(cc1-3)OCO2 [BBR, Berberine]
- Hb content [1]: significantly decreased; also recorded: significantly reduced
- erythrocytes count [1]: significantly decreased; also recorded: significantly reduced
- platelet count [1]: did not fluctuate obviously; also recorded: no significant effects
- white blood count [1]: did not fluctuate obviously; also recorded: no significant effects
- concentration of BBR in the liver relative to plasma ([2]; background statement of the introduction, no reference given): about 10 fold
- average concentration of BBR in liver relative to plasma ([2]; ref Yan et al., 2009, Tan et al., 2013, Yu et al., 2017): 10–30 times
- Ksv (Stern-Volmer quenching constant) (bovine hemoglobin (BHB) [3]; 293 K): 41272 L/mol
- kq (quenching rate constant) (bovine hemoglobin (BHB) [3]; 293 K): 4.1272e+12 M⁻¹ s⁻¹
- Ksv (Stern-Volmer quenching constant) (bovine hemoglobin (BHB) [3]; 298 K): 38445 L/mol
- kq (quenching rate constant) (bovine hemoglobin (BHB) [3]; 298 K): 3.8445e+12 M⁻¹ s⁻¹
- Ksv (Stern-Volmer quenching constant) (bovine hemoglobin (BHB) [3]; 310 K): 30957 L/mol
- kq (quenching rate constant) (bovine hemoglobin (BHB) [3]; 310 K): 3.0957e+12 M⁻¹ s⁻¹
- ΔG° (bovine hemoglobin (BHB) [3]; 293 K): -6.1902 kcal/mol
- ΔH° (bovine hemoglobin (BHB) [3]; 293 K): -1.1352 kcal/mol
- ΔS° (bovine hemoglobin (BHB) [3]; 293 K): 72.113 J mol^−1K^−1
- ΔG° (bovine hemoglobin (BHB) [3]; 298 K): -6.2765 kcal/mol
- ΔH° (bovine hemoglobin (BHB) [3]; 298 K): -1.1352 kcal/mol
- ΔS° (bovine hemoglobin (BHB) [3]; 298 K): 72.114 J mol^−1K^−1
- ΔG° (bovine hemoglobin (BHB) [3]; 310 K): -6.4493 kcal/mol
- ΔH° (bovine hemoglobin (BHB) [3]; 310 K): -1.1352 kcal/mol
- ΔS° (bovine hemoglobin (BHB) [3]; 310 K): 71.724 J mol^−1K^−1
- quenching mechanism of BBR-BHB complex formation (bovine hemoglobin (BHB) [3]; Ksv and Kq decreased with increasing temperature): static quenching process
- major force in the binding reaction (bovine hemoglobin (BHB) [3]; from negative ΔH° and positive ΔS°): electrostatic interaction
- α-helicity of BHB after addition of BBR (bovine hemoglobin (BHB) [4]): 33.53%
- oral bioavailability [5]: less than 1%
